Test results from ChEMBL document CHEMBL1201862, “PubChem BioAssay data set” (2004).
Values joined by “and” are separate entries in the source; they are usually repeats but may differ in a detail not shown here. Equal entries are not always repeated.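 These data come from cells grown in 96-well plates and exposed to compound for 48 hours at five concentrations. The concentration for 50% growth inhibition is given as GI50.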 Active and inactive are the calls of the source. No stated cut-off is given here; in the data, active = GI50 up to about 1.1 µM and inactive = higher.

Tests used:
Assay in all cases: NCI tumour cell line growth inhibition, 48 h
M14 = tested on: M14
OVCAR-8 = tested on: OVCAR-8
HL-60 = tested on: HL-60
LOX IMVI = tested on: LOX IMVI
UACC-62 = tested on: UACC-62
SF-539 = tested on: SF-539
OVCAR-3 = tested on: OVCAR-3
KM12 = tested on: KM12
SNB-75 = tested on: SNB-75
UACC-257 = tested on: UACC-257
BT-549 = tested on: BT-549
OVCAR-5 = tested on: OVCAR-5
786-0 = tested on: 786-0
MDA-N = tested on: MDA-N
NCI-H23 = tested on: NCI-H23
T47D = tested on: T47D
SF-268 = tested on: SF-268
SNB-19 = tested on: SNB-19
TK-10 = tested on: TK-10

Measured: GI50

CCC(=O)Nc1ccc(NCC(=O)Nc2ccc(Cl)cc2)cc1
inactive: M14 15.3 µM | OVCAR-8 27.5 µM | HL-60 14.1 µM | LOX IMVI 13.1 µM | UACC-62 12.4 µM | SF-539 18.1 µM | OVCAR-3 15.7 µM | KM12 12.7 µM | SNB-75 25.5 µM | UACC-257 16.6 µM | BT-549 21.9 µM | OVCAR-5 13.9 µM | 786-0 17.2 µM | MDA-N 17.2 µM | NCI-H23 18.5 µM | T47D 12.8 µM | SF-268 22.6 µM | SNB-19 19.8 µM

Cc1cc(OC(=O)Nc2ccc(Cl)cc2)ccc1C(=S)Nc1ccccc1
inactive: M14 12.6 µM | OVCAR-8 > 100 µM | HL-60 14 µM | LOX IMVI 29.3 µM | UACC-62 3.85 µM | SF-539 > 100 µM | OVCAR-3 50.6 µM | KM12 8.93 µM | SNB-75 49.9 µM | UACC-257 23.2 µM | BT-549 91.8 µM | OVCAR-5 57 µM | 786-0 80 µM | MDA-N 71.3 µM | T47D 34.2 µM | SF-268 47.9 µM | SNB-19 > 100 µM

CC1OC(OC2C(OC(=O)[C@]34CCC(C)(C)C[C@H]3C3=CC[C@@H]5[C@@]6(C)CC[C@H](OC7OC(C(=O)O)C(O)C(O)C7O)C(C)(C)[C@@H]6CC[C@@]5(C)[C@]3(C)C[C@H]4O)OCC(O)C2O)C(O)C(O)C1OC1OCC(O)C(O)C1O (some centres undefined)
inactive: M14 13.7 µM and 8.59 µM | HL-60 8.93 µM | LOX IMVI 15.5 µM and 10.7 µM | UACC-62 18.5 µM and 16 µM | OVCAR-3 15.3 µM and 17.7 µM | SNB-75 15.9 µM and 16.9 µM | UACC-257 16.8 µM and 16.4 µM | BT-549 12.2 µM and 13.5 µM | OVCAR-5 10.5 µM and 14.9 µM | 786-0 14.8 µM and 12.6 µM | MDA-N 10.6 µM and 13.8 µM | NCI-H23 5.31 µM and 6.5 µM | T47D 22.2 µM and 11.3 µM | SF-268 11.6 µM and 19.3 µM | SNB-19 12.6 µM and 8.09 µM

Nc1nnc(-c2ccco2)c(-c2ccco2)n1
inactive: M14 > 100 µM | OVCAR-8 > 100 µM | HL-60 > 100 µM | UACC-62 > 100 µM | SF-539 > 100 µM | OVCAR-3 > 100 µM | KM12 > 100 µM | SNB-75 86.9 µM | UACC-257 > 100 µM | BT-549 > 100 µM | OVCAR-5 > 100 µM | 786-0 > 100 µM | MDA-N > 100 µM | TK-10 > 100 µM | NCI-H23 > 100 µM | T47D > 100 µM | SF-268 > 100 µM | SNB-19 > 100 µM

N=C(N)C(/N=N\c1ccccc1)C(=N)N (centres undefined)
inactive: M14 40.7 µM | OVCAR-8 95.5 µM | HL-60 24.7 µM | LOX IMVI 34 µM | UACC-62 34.5 µM | SF-539 14.9 µM | OVCAR-3 38.5 µM | KM12 29.4 µM | UACC-257 33.7 µM | BT-549 39.9 µM | OVCAR-5 49.7 µM | 786-0 35.6 µM | MDA-N 19.5 µM | TK-10 46.9 µM | NCI-H23 50.4 µM | T47D 46.3 µM | SF-268 59.6 µM | SNB-19 53.7 µM

C[C@@]12CCC3C1C=C1C(=O)c4cc(O)ccc4C(=O)[C@]1(O2)[C@@]3(C)C=O
inactive: M14 8.34 µM | OVCAR-8 6.01 µM | HL-60 1.42 µM | LOX IMVI 2.57 µM | UACC-62 7.43 µM | SF-539 3.82 µM | OVCAR-3 3.72 µM | KM12 4.79 µM | UACC-257 9.16 µM | BT-549 2.51 µM | OVCAR-5 13.7 µM | 786-0 4.14 µM | MDA-N 3.48 µM | TK-10 11.6 µM | NCI-H23 3.93 µM | T47D 3.55 µM | SF-268 9.91 µM | SNB-19 8.95 µM
